# How the values were obtained:
# Assay in all cases: relative viability (nuclei count vs DMSO), 5 days (fraction); higher = more cells survive
# Ibrutinib + Pictilisib = compound: C=CC(=O)N1CCC[C@@H](n2nc(-c3ccc(Oc4ccccc4)cc3)c3c(N)ncnc32)C1 [Ibrutinib] + CS(=O)(=O)N1CCN(Cc2cc3nc(-c4cccc5[nH]ncc45)nc(N4CCOCC4)c3s2)CC1 [Pictilisib] (partner 1 µM)
# Method in brief: (§1)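 Nuclei were stained with Hoechst during a one-step fixation (final 0.05% Triton X-100, 1% formaldehyde, 1 ug/ml Hoechst) carried out 5 days after dosing, then counted on 4× images. The cells, lung cancer lines in 1536-well plates, had been dosed by pin tool the day after seeding with one drug alone or a fixed anchor-drug dose plus five library-drug doses (not always all listed) in √10 steps. Relative viability is the nuclei count in treated wells divided by that in vehicle wells, and each value is the median of duplicate plates.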
# PAC-1 + AZD7762 = compound: C=CCc1cccc(/C=N/NC(=O)CN2CCN(Cc3ccccc3)CC2)c1O [PAC-1] + NC(=O)Nc1cc(-c2cccc(F)c2)sc1C(=O)N[C@H]1CCCNC1 [AZD7762] (partner 0.2 µM)
# Method in brief: as §1
# PAC-1 + Trametinib = compound: C=CCc1cccc(/C=N/NC(=O)CN2CCN(Cc3ccccc3)CC2)c1O [PAC-1] + CC(=O)Nc1cccc(-n2c(=O)n(C3CC3)c(=O)c3c(Nc4ccc(I)cc4F)n(C)c(=O)c(C)c32)c1 [Trametinib] (partner 0.02 µM)
# Method in brief: as §1
# Ibrutinib + AZD7762 = compound: C=CC(=O)N1CCC[C@@H](n2nc(-c3ccc(Oc4ccccc4)cc3)c3c(N)ncnc32)C1 [Ibrutinib] + NC(=O)Nc1cc(-c2cccc(F)c2)sc1C(=O)N[C@H]1CCCNC1 [AZD7762] (partner 0.2 µM)
# Method in brief: as §1
Cell Line,relative viability (Ibrutinib + Pictilisib; first compound 0.01581 µM),relative viability (Ibrutinib + Pictilisib; first compound 0.05 µM),relative viability (Ibrutinib + Pictilisib; first compound 0.1581 µM),relative viability (Ibrutinib + Pictilisib; first compound 0.5 µM),relative viability (PAC-1 + AZD7762; first compound 0.02 µM),relative viability (PAC-1 + AZD7762; first compound 0.06325 µM),relative viability (PAC-1 + AZD7762; first compound 0.2 µM),relative viability (PAC-1 + AZD7762; first compound 2 µM),relative viability (PAC-1 + Trametinib; first compound 0.02 µM),relative viability (PAC-1 + Trametinib; first compound 0.06325 µM),relative viability (PAC-1 + Trametinib; first compound 0.2 µM),relative viability (PAC-1 + Trametinib; first compound 2 µM),relative viability (Ibrutinib + AZD7762; first compound 0.01581 µM),relative viability (Ibrutinib + AZD7762; first compound 0.05 µM),relative viability (Ibrutinib + AZD7762; first compound 0.1581 µM),relative viability (Ibrutinib + AZD7762; first compound 0.5 µM),relative viability (Ibrutinib + AZD7762; first compound 0.005 µM),relative viability (Ibrutinib + Pictilisib; first compound 0.005 µM)
NCI-H1355,0.474,0.481,0.26,0.343,0.634,0.721,0.795,0.785,0.464,0.467,0.416,0.419,0.768,0.846,0.9,0.72,–,–
LK-2,0.472,0.532,0.494,0.488,0.488,0.315,0.327,0.416,0.758,0.629,0.785,0.791,0.513,0.438,0.405,0.25,0.31,–
NCI-H1650,0.52,0.506,0.515,0.476,–,–,–,–,0.538,0.54,0.335,0.542,–,–,–,–,–,0.493
NCI-H838,0.38,0.514,0.472,0.543,0.972,0.964,0.936,0.925,0.46,0.509,0.459,0.528,0.876,0.985,0.946,0.943,0.739,0.343
EMC-BAC-2,0.521,0.604,0.525,0.522,1.13,1.24,1.19,1.15,1.07,0.925,0.913,0.849,1.1,1.1,–,1.2,1.19,0.43
SW 1573,0.466,0.478,0.414,0.503,–,–,–,–,0.492,0.623,0.528,0.625,–,–,–,–,–,0.416
CAL-12T,0.448,0.394,0.355,0.495,0.579,0.621,0.626,0.6,0.329,0.359,0.353,0.386,0.69,0.544,0.616,0.766,0.701,0.232
NCI-H2009,0.846,0.742,0.468,0.759,–,–,–,–,0.295,0.35,0.255,0.234,–,–,–,–,–,0.593
EBC-1,0.436,0.378,0.456,0.321,–,–,–,–,–,–,–,–,–,–,–,–,–,0.31
A549,0.416,0.521,0.586,0.499,–,–,–,–,–,–,–,–,–,–,–,–,–,0.396
NCI-H661,0.413,0.308,0.358,0.284,–,–,–,–,0.585,0.591,0.581,0.585,–,–,–,–,–,0.302
NCI-H2228,0.486,0.276,0.433,0.386,–,–,–,–,0.394,0.889,0.433,0.648,–,–,–,–,–,0.316
NCI-H522,–,–,–,–,0.886,0.69,0.799,0.891,0.675,0.915,0.848,0.77,0.698,0.683,0.766,0.751,0.847,–
NCI-H2023,0.308,0.207,0.25,0.206,–,–,–,–,0.723,0.542,0.47,0.402,–,–,–,–,–,0.165
Calu-6,0.843,0.949,1.05,–,–,–,–,–,–,–,–,–,–,–,–,–,–,0.854
NCI-H1563,0.635,0.677,0.607,0.602,–,–,–,–,–,–,–,–,–,–,–,–,–,0.663
IA-LM,0.231,0.312,0.411,0.22,–,–,–,–,–,–,–,–,–,–,–,–,–,0.203
NCI-H1299,0.555,0.773,0.699,0.854,–,–,–,–,–,–,–,–,–,–,–,–,–,0.571
COR-L23,0.742,0.885,0.925,0.729,–,–,–,–,0.586,0.66,–,0.673,–,–,–,–,–,0.626
NCI-H1648,–,–,–,–,0.604,0.898,0.73,0.66,0.388,0.525,0.445,0.504,0.66,0.673,0.762,0.865,0.697,–
NCI-H1703,0.233,0.205,0.241,0.222,0.148,0.128,0.143,0.124,–,–,–,–,0.126,–,0.148,0.19,–,–
NCI-H2342,–,–,–,–,0.56,0.383,0.395,0.666,1.16,0.816,0.697,0.83,0.6,0.499,0.472,0.345,0.317,–
SW 900,–,–,–,–,–,0.744,0.637,0.678,–,0.8,0.686,0.817,0.565,0.597,0.513,0.512,0.472,–
ABC-1,0.743,0.716,0.513,0.615,0.952,0.871,0.628,0.975,–,–,–,–,0.863,0.807,0.759,0.695,0.904,0.528
UMC-11,0.781,0.795,0.777,0.784,–,–,–,–,0.731,0.742,0.878,0.713,–,–,–,–,–,0.31
NCI-H520,0.262,0.258,0.183,0.254,–,–,–,–,0.747,0.746,0.64,0.797,–,–,–,–,–,0.25
SK-LU-1,0.509,0.542,0.55,0.549,–,–,–,–,0.495,0.481,0.484,0.584,–,–,–,–,–,0.381
COR-L 105,0.418,0.488,0.341,0.325,–,–,–,–,0.436,0.453,0.47,0.355,–,–,–,–,–,0.316

# Source: the supplement of paper PMC10307832
